The target in assay [1] is Cyclin-dependent kinase 4/cyclin D (Homo sapiens, UniProt P11802). As to the kind of experiment: Inhibition of Cyclin-dependent kinase 4-cyclin D. It counts as protein-complex assay.
Assay [2] deals with Cyclin-dependent kinase 2/cyclin E (Homo sapiens, UniProt P24941). Kind of assay: Inhibition of Cyclin-dependent kinase 2-cyclin E. The assay is classed as protein-complex assay.
The test system of the next assay is HCT-116. As to the kind of experiment: Inhibition of HCT116 human colon carcinoma cell proliferation. It counts as functional, cell-based.
The target in assay [3] is Cyclin-dependent kinase 1/cyclin B (Homo sapiens, UniProt P06493). As to the kind of experiment: Inhibition of Cyclin-dependent kinase 1-cyclin B. It counts as protein-complex assay.
In assay [4] the target is Cyclin-dependent kinase 2/cyclin A (Homo sapiens, UniProt P24941). As to the kind of experiment: Inhibition of Cyclin-dependent kinase 2-cyclin A. It counts as protein-complex assay.
Assay [5] deals with Fibroblast growth factor receptor (Homo sapiens, UniProt P22607+P11362+P22455+P21802). As to the kind of experiment: Inhibition of Fibroblast growth factor receptor (FGFr). The assay is classed as protein assay.
The target of assay [6] is Proto-oncogene tyrosine-protein kinase Src (Homo sapiens, UniProt P12931). Kind of assay: Inhibition of c-Src tyrosine kinase.
Sequence of Proto-oncogene tyrosine-protein kinase Src (P12931 2-536 limits assumed): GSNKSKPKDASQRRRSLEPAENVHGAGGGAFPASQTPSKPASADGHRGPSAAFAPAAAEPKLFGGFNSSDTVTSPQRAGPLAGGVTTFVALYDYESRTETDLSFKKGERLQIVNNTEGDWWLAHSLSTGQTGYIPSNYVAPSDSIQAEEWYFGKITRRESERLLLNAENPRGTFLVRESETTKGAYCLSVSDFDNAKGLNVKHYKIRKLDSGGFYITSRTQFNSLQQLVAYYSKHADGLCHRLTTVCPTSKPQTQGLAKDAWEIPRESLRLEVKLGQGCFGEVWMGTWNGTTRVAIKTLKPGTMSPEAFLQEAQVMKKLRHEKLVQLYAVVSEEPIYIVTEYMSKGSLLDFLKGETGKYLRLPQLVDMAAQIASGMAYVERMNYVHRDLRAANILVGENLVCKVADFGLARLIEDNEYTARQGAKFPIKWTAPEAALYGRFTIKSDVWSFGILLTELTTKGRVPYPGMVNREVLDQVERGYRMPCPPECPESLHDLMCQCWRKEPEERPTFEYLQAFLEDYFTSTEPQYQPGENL

Bounds are passed on as bounds.

`CCn1c(=O)ccc2cnc(Nc3ccc(O)c(OC)c3)nc21` had an IC50 in assay [1] of 1820 nM.
Turning to `O=c1ccc2cnc(Nc3ccc(N4CCC(CCCO)CC4)cc3)nc2n1C1CC2CCC1C2` (stereo not drawn), the IC50 in assay [2] is 165 nM; with HCT-116 it was 213 nM; in assay [3], over 40000 nM; in assay [4], 209 nM; in assay [5] it was 8620 nM; in assay [1], 8 nM.
For the compound `CCOCCn1c(=O)ccc2cnc(Nc3ccccc3)nc21`, the IC50 in assay [1] came out at 7800 nM.
In turn, `CCN(CC)c1ccc(Nc2ncc3ccc(=O)n(CC)c3n2)cc1` showed an IC50 in assay [1] of 1400 nM.
On to `CCn1c(=O)ccc2cnc(Nc3ccc(-n4cccc4)cc3)nc21`, for which the IC50 in assay [1] came to 2750 nM.
In assay [5], `CCCn1c(=O)ccc2cnc(Nc3ccccc3)nc21` returned an IC50 of 6600 nM.
Take `CCn1c(=O)ccc2cnc(Nc3ccc(OC)c(OC)c3)nc21`: the IC50 in assay [1] turned out to be 4080 nM.
On to `CN1CCN(c2ccc(Nc3ncc4ccc(=O)n(C5CCCCC5)c4n3)cc2)CC1`, for which the IC50 in assay [2] is 20 nM; in assay [5], 51 nM; in assay [1], 4 nM.
With `COCCn1c(=O)ccc2cnc(Nc3ccccc3)nc21`, the midpoint of inhibition in assay [1], the IC50, lay at 2860 nM.
Turning to `CCN(CC)CCOc1ccc(Nc2ncc3ccc(=O)n(C4CCCCCC4)c3n2)cc1`, the IC50 in assay [1] came out at 4 nM.
As to `COCn1c(=O)ccc2cnc(Nc3ccccc3)nc21`, in assay [1], the half-inhibitory concentration (IC50) amounted to 4150 nM.
In the case of `CCn1c(=O)ccc2cnc(N(C)c3ccccc3)nc21`, the IC50 in assay [1] was over 40000 nM.
The compound `CCn1c(=O)ccc2cnc(Nc3ccc(O)cc3)nc21` displayed an IC50 in assay [1] of 585 nM.
`CCn1c(=O)ccc2cnc(NC(C)C)nc21`: 4320 nM corresponded to half-maximal inhibition in assay [1] (IC50).
Consider `CCN(CC)CCOc1ccc(Nc2ncc3ccc(=O)n(C4CCCC4)c3n2)cc1`, for which the IC50 in assay [1] amounted to 0.7 nM.
Take `CCn1c(=O)ccc2cnc(Nc3ccccc3)nc21`: the values for the IC50 in assay [6], in assay [5] and in assay [1] were 21000 nM, 3295 nM and 620 nM, respectively.
For `CC(C)n1c(=O)ccc2cnc(Nc3ccc(N4CCN(C)CC4)cc3)nc21`, the IC50 in assay [5] stood at 70 nM.
In turn, `COC(=O)Cn1c(=O)ccc2cnc(Nc3ccccc3)nc21` displayed an IC50 in assay [1] of 31000 nM.
For the compound `CN1CCN(c2ccc(Nc3ncc4ccc(=O)n(-c5ccccc5)c4n3)cc2)CC1`, 175 nM corresponded to half-maximal inhibition in assay [1] (IC50).
On the same count and under the same terms, under `CN1CCN(c2ccc(Nc3ncc4ccc(=O)n(CC(O)CO)c4n3)cc2)CC1` (stereo not drawn) stands 1650 nM; under `CN1CCN(c2ccc(Nc3ncc4ccc(=O)n(C5CC5)c4n3)cc2)CC1`, 140 nM.
The same measure, in the same setting: under `CN1CCN(c2ccc(Nc3ncc4ccc(=O)n(CCOCc5ccccc5)c4n3)cc2)CC1` stands 2100 nM.
`CCn1c(=O)ccc2cnc(Nc3cccc(OC(F)(F)C(F)F)c3)nc21`: the IC50 in assay [5] worked out at 44200 nM.
The compound `CCn1c(=O)ccc2cnc(Nc3ccc(N4CCC(CCCO)CC4)cc3)nc21` returned a concentration for half-maximal inhibition (IC50) in assay [1] of 900 nM.
Same read-out and setting: under `CN1CCN(c2ccc(Nc3ncc4ccc(=O)n(C5CC6CCC5C6)c4n3)cc2)CC1` (stereo not drawn) stands 6 nM; under `CCn1c(=O)ccc2cnc(Nc3ccc(N4CCCCC4)cc3)nc21`, 300 nM.
In assay [1], `CCn1c(=O)ccc2cnc(Nc3ccc(OCCN(C)C)cc3)nc21` gave an IC50 of 330 nM.
For the compound `CCn1c(=O)ccc2cnc(Nc3ccc(OCCOC)cc3)nc21`, the half-inhibitory concentration (IC50) in assay [1] was 2330 nM.
In turn, `CCn1c(=O)ccc2cnc(Nc3cccc(OC)c3)nc21` yielded an IC50 in assay [1] of over 40000 nM.
On to `O=c1ccc2cnc(Nc3ccccc3)nc2n1CC1CCCCC1`, for which, in assay [1], half-maximal inhibition (IC50) was put at 13500 nM.
On the same count and under the same terms, next, `CCC(C)n1c(=O)ccc2cnc(Nc3ccccc3)nc21` (stereo not drawn): 190 nM; `CC(C)n1c(=O)ccc2cnc(Nc3ccccc3)nc21`: 145 nM; `O=c1ccc2cnc(Nc3ccc(N4CCC(CCCO)CC4)cc3)nc2n1C1CCCC1`: 34 nM.
On the same count and under the same terms, next, `CC(C)Cn1c(=O)ccc2cnc(Nc3ccccc3)nc21`: 297 nM; `CCN(CC)CCOc1ccc(Nc2ncc3ccc(=O)n(C4CC5CCC4C5)c3n2)cc1` (stereo not drawn): 450 nM.
Regarding `CCCCn1c(=O)ccc2cnc(Nc3ccccc3)nc21`, the IC50 in assay [3] came out at 2000 nM; in assay [5], 5290 nM.
Consider `CCn1c(=O)ccc2cnc(Nc3ccncc3)nc21`, for which the IC50 in assay [1] came to 1170 nM.
For `CN1CCN(c2ccc(Nc3ncc4ccc(=O)n(C5CCCC5)c4n3)cc2)CC1`, the IC50 in assay [1] is 9 nM.
In the case of `CCN(CC)CCOc1ccc(Nc2ncc3ccc(=O)n(C4CCCCC4)c3n2)cc1`, the 50% inhibitory concentration (IC50) in assay [1] was 11 nM.
On to `O=c1ccc2cnc(Nc3ccccc3)nc2n1-c1ccccc1`, for which it took 1670 nM to reach half-maximal inhibition in assay [1] (IC50).
As to `CC(C)CCn1c(=O)ccc2cnc(Nc3ccccc3)nc21`, in assay [1], inhibition was half-maximal at 159 nM (IC50).
In assay [1], `CCn1c(=O)ccc2cnc(NCc3ccccc3)nc21` registered a half-maximal inhibitory concentration (IC50) of over 40000 nM.
`CC(C)CCn1c(=O)ccc2cnc(Nc3ccc(N4CCN(C)CC4)cc3)nc21` had an IC50 in assay [1] of 13 nM.

These data come from ChEMBL document CHEMBL1133535, “Pyrido[2,3-d]pyrimidin-7-one inhibitors of cyclin-dependent kinases” (J Med Chem, 2000).
